IC50 data for 27 molecules are collected here from US10017507B2, “Diaza-benzofluoranthrene compounds” (HARBIN PHARMACEUTICAL GROUP CO., LTD. GENERAL …, priority 2015, dated 2018).

In this assay the target is T1, PDE1A (Homo sapiens, UniProt P54750).
T1 construct: purchased SignalChem
Kind of assay: In vitro detection of phosphodiesterase (PDE): PDE1A enzyme activity by fluorescence polarization immunoassay. In kind it is biochemical. The note with it: human-derived enzyme, cAMP or cGMP substrate; read-out: IC50s for PDE1. Put shortly: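 Human PDE1A (enzyme solution 3 pM) was preincubated 10 min at RT with compound in 10 mM Tris-HCl pH 7.5, 5 mM MgCl2, 0.01% Brij 35, 1 mM DTT, 1% DMSO, with Ca2+-calmodulin cofactor. Reaction ran 1 h at RT on […] cAMP or cGMP, then 90 min with antibody/tracer. FP at Ex/Em 620/688 was converted to AMP/GMP via standard curve to give IC50.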
For orientation: In fluorescence polarisation assays a small probe gives low polarisation when free and higher when bound to something large.
As to `CC[C@@]12C=C(c3nc(C)c(C4CC4)o3)n3c4c(c5ccccc53)CCN(CCC1)[C@H]42` [Example 58, 5-cyclopropyl-2-((4^1S,13aS)-13a-ethyl-2,3,4^1,5,6,13a-hexahydro-1H-indolo[3,2,1-de]pyrido[3,2,1-ij][1,5]naphthyridin-12-yl)-4-methyloxazole], the IC50 was at most 1 µM.
`CC[C@@]12C=C(c3cc(C)no3)n3c4c(c5ccccc53)CCN(CCC1)[C@H]42` [Example 47, 5-((4^1S,13aS)-13a-ethyl-2,3,4^1,5,6,13a-hexahydro-1H-indolo[3,2,1-de]pyrido[3,2,1-ij][1,5]naphthyridin-12-yl)-3-methylisoxazole]: the IC50 was in the range of 1 to 20 µM.
For `CC[C@@]12C=C(c3noc(C4CCOCC4)n3)n3c4c(c5ccccc53)CCN(CCC1)[C@H]42` [Example 23, 3-((4^1S,13aS)-13a-ethyl-2,3,4^1,5,6,13a-hexahydro-1H-indolo[3,2,1-de]pyrido[3,2,1-ij][1,5]naphthyridin-12-yl)-5-(tetrahydro-2H-pyran-4-yl)-1,2,4-oxadiazole] the value was 1 to 20 µM; for `CC[C@@]12C=C(c3ncc(C)o3)n3c4c(c5ccccc53)CCN(CCC1)[C@H]42` [Example 51, 2-((4^1S,13aS)-13a-ethyl-2,3,4^1,5,6,13a-hexahydro-1H-indolo[3,2,1-de]pyrido[3,2,1-ij][1,5]naphthyridin-12-yl)-5-methyloxazole], 1 to 20 µM.
Take `CC[C@@]12C=C(c3nc(C)c(OC)o3)n3c4c(c5ccccc53)CCN(CCC1)[C@H]42` [Example 41, 2-((4^1S,13aS)-13a-ethyl-2,3,4^1,5,6,13a-hexahydro-1H-indolo[3,2,1-de]pyrido[3,2,1-ij][1,5]naphthyridin-12-yl)-5-methoxy-4-methyloxazole]: the IC50 was at most 1 µM.
Then `CC[C@@]12C=C(c3ccno3)n3c4c(c5ccccc53)CCN(CCC1)[C@H]42` [Example 45, 5-((4^1S,13aS)-13a-ethyl-2,3,4^1,5,6,13a-hexahydro-1H-indolo[3,2,1-de]pyrido[3,2,1-ij][1,5]naphthyridin-12-yl)isoxazole], with 20 to 100 µM; and `CCCC(O)(CCC)C1=C[C@]2(CC)CCCN3CCc4c(n1c1ccccc41)[C@@H]32` [Example 49, 4-((4^1S,13aS)-13a-ethyl-2,3,4^1,5,6,13a-hexahydro-1H-indolo[3,2,1-de]pyrido[3,2,1-ij][1,5]naphthyridin-12-yl) heptan-4-ol], with over 100 µM.
Then `CC[C@@]12C=C(c3nc(C)no3)n3c4c(c5ccc(S(=O)(=O)N(C)C)cc53)CCN(CCC1)[C@H]42` [Example 77, (4^1S,13aS)-13a-ethyl-N,N-dimethyl-12-(3-methyl-1,2,4-oxadiazol-5-yl)-2,3,4^1,5,6,13a-hexahydro-1H-indolo[3,2,1-de]pyrido[3,2,1-ij][1,5]naphthyridin-9-sulfonamide], with 20 to 100 µM; and “(4^1S,13aS)-13a-ethyl-N-(3-methoxylpropyl)-12-(3-methyl-1,2,4-oxadiazol-5-yl)-2,3,4^1,5,6,13a-hexahydro-1H-indolo[3,2,1-de]pyrido[3,2,1-ij][1,5]naphthyridin-8-sulfonamide [Example 81]”, with 20 to 100 µM.
For `CC[C@@]12C=C(/C(C#N)=N/OC)n3c4c(c5ccccc53)CCN(CCC1)[C@H]42` [Example 2, (4^1S,13aS,Z)-13a-ethyl-N-methoxyl-2,3,4^1,5,6,13a-hexahydro-1H-indolo[3,2,1-de]pyrido[3,2,1-ij][1,5]naphthyridine-12-carbimidoyl cyanide] the value was 1 to 20 µM; for `CCc1oc(C2=C[C@]3(CC)CCCN4CCc5c(n2c2ccccc52)[C@@H]43)nc1C` [Example 53, 5-ethyl-2-((4^1S,13aS)-13a-ethyl-2,3,4^1,5,6,13a-hexahydro-1H-indolo[3,2,1-de]pyrido[3,2,1-ij][1,5]naphthyridin-12-yl)-4-methyloxazole], at most 1 µM.
As for `CC[C@@]12C=C(c3ccccn3)n3c4c(c5ccccc53)CCN(CCC1)[C@H]42` [Example 11, (4^1S,13aS)-13a-ethyl-12-(pyridin-2-yl)-2,3,4^1,5,6,13a-hexahydro-1H-indolo[3,2,1-de]pyrid o[3,2,1-ij][1,5]naphthyridine], the IC50 lay within 20 to 100 µM.
Then `CC[C@@]12C=C(c3nc(C)c(C)o3)n3c4c(c5ccc(S(=O)(=O)NCCCOC)cc53)CCN(CCC1)[C@H]42` [Example 70, (4^1S,13aS)-12-(4,5-dimethyloxazol-2-yl)-13a-ethyl-N-(3-methoxylpropyl)-2,3,4^1,5,6,13a-hexahydro-1H-indolo[3,2,1-de]pyrido[3,2,1-ij][1,5]naphthyridin-9-sulfonamide], with at most 1 µM; and `CC[C@@]12C=C(C(O)C(F)(F)F)n3c4c(c5ccccc53)CCN(CCC1)[C@H]42` (stereo partly drawn) [Example 1, 1-((4^1S,13aS)-13a-ethyl-2,3,4^1,5,6,13a-hexahydro-1H-indolyl[3,2,1-de]pyridyl[3,2,1-ij][1,5]naphthyridine-12-yl)-2,2,2-trifluoroethanol], with over 100 µM.
With `CC[C@@]12C=C(c3nc(C)c(C)o3)n3c4c(c5ccc(S(=O)(=O)N(C)C)cc53)CCN(CCC1)[C@H]42` [Example 69, (4^1S,13aS)-12-(4,5-dimethyloxazol-2-yl)-13a-ethyl-N,N-dimethyl-2,3,4^1,5,6,13a-hexahydro-1H-indolo[3,2,1-de]pyrido[3,2,1-ij][1,5]naphthyridin-9-sulfonamide], the IC50 fell in the range of 1 to 20 µM.
Then `CC[C@@]12C=C(c3noc(-c4cccs4)n3)n3c4c(c5ccccc53)CCN(CCC1)[C@H]42` [Example 28, 3-((4^1S,13aS)-13a-ethyl-2,3,4^1,5,6,13a-hexahydro-1H-indolo[3,2,1-de]pyrido[3,2,1-ij][1,5]naphthyridin-12-yl)-5-(thiophen-2-yl)-1,2,4-oxadiazole], with over 100 µM; and `CC[C@@]12C=C(/C=C/C(=O)O)n3c4c(c5ccccc53)CCN(CCC1)[C@H]42` [Example 5, (E)-3-((4^1S,13aS)-13a-ethyl-2,3,4^1,5,6,13a-hexahydro-1H-indolo[3,2,1-de]pyrido[3,2,1-ij][1,5]naphthyridin-12-yl)acrylic acid], with over 100 µM.
Then “(4^1S,13aS)-13a-ethyl-N-(3-methoxylpropyl)-12-(3-methyl-1,2,4-oxadiazol-5-yl)-2,3,4,5,6,13a-hexahydro-1H-indolo[3,2,1-de]pyrido[3,2,1-ij][1,5]naphthyridin-7-sulfonamide [Example 84]”, with over 100 µM; and `CC[C@@]12C=C(c3noc(C4CCN(C(=O)OC(C)(C)C)CC4)n3)n3c4c(c5ccccc53)CCN(CCC1)[C@H]42` [Example 26, Tert-butyl-4-(3-((4^1S,13aS)-13a-ethyl-2,3,4^1,5,6,13a-hexahydro-1H-indolo[3,2,1-de]pyrido[3,2,1-ij][1,5]naphthyridin-12-yl)-1,2,4-oxadiazol-5-yl)piperidine-1-carboxylate], with over 100 µM.
With `CC[C@@]12C=C(c3noc(=O)[nH]3)n3c4c(c5ccccc53)CCN(CCC1)[C@H]42` [Example 18, 3-((4^1S,13aS)-13a-ethyl-2,3,4^1,5,6,13a-hexahydro-1H-indolo[3,2,1-de]pyrido[3,2,1-ij][1,5]naphthyridin-12-yl)-1,2,4-oxadiazol-5 (4H)-one], the IC50 is over 100 µM.
Take `CC[C@@]12C=C(c3nc(C)no3)n3c4c(c5c(S(=O)(=O)N(C)C)cccc53)CCN(CCC1)[C@H]42` [Example 83, (4^1S,13aS)-13a-ethyl-N,N-dimethyl-12-(3-methyl-1,2,4-oxadiazol-5-yl)-2,3,4^1,5,6,13a-hexahydro-1H-indolo[3,2,1-de]pyrido[3,2,1-ij][1,5]naphthyridin-7-sulfonamide]: the IC50 lay in the range of 20 to 100 µM.
Regarding `CCC/C(=N\OC)C1=C[C@]2(CC)CCCN3CCc4c(n1c1ccccc41)[C@@H]32` [Example 48, 1-((4^1S,13aS)-13a-ethyl-2,3,4^1,5,6,13a-hexahydro-1H-indolo[3,2,1-de]pyrido[3,2,1-ij][1,5]naphthyridin-12-yl)butan-1-one-O-methyl oxime], the IC50 lay in the range of 1 to 20 µM.
Then `CC[C@@]12C=C(c3noc(C(C)(C)O)n3)n3c4c(c5ccccc53)CCN(CCC1)[C@H]42` [Example 25, 2-(3-((4^1S,13aS)-13a-ethyl-2,3,4^1,5,6,13a-hexahydro-1H-indolo[3,2,1-de]pyrido[3,2,1-ij][1,5]naphthyridin-12-yl)-1,2,4-oxadiazol-5-yl)propan-2-ol], with 1 to 20 µM; and `CC[C@@]12C=C(c3nnc(C)o3)n3c4c(c5ccccc53)CCN(CCC1)[C@H]42` [Example 17, 2-((4^1S,13aS)-13a-ethyl-2,3,4^1,5,6,13a-hexahydro-1H-indolo[3,2,1-de]pyrido[3,2,1-ij][1,5]naphthyridin-12-yl)-5-methyl-1,3,4-oxadiazole], with 1 to 20 µM; and `CC[C@@]12C=C(c3nc(C)c(CO)o3)n3c4c(c5ccccc53)CCN(CCC1)[C@H]42` [Example 61, (2-((4^1S,13aS)-13a-ethyl-2,3,4^1,5,6,13a-hexahydro-1H-indolo[3,2,1-de]pyrido[3,2,1-ij][1,5]naphthyridin-12-yl)-4-methyloxazol-5-yl)methanol], with at most 1 µM.
Then `CC[C@@]12C=C(c3nc(C)c(C)o3)n3c4c(c5c(S(=O)(=O)NCCCOC)cccc53)CCN(CCC1)[C@H]42` [Example 75, (4^1S,13aS)-12-(4,5-dimethyloxazol-2-yl)-13a-ethyl-N-(3-methoxylpropyl)-2,3,4^1,5,6,13a-hexahydro-1H-indolo[3,2,1-de]pyrido[3,2,1-ij][1,5]naphthyridin-7-sulfonamide], with 20 to 100 µM; and `CC[C@@]12C=C(c3nc(C)c(C)o3)n3c4c(c5ccccc53)CCN(CCC1)[C@H]42` [Example 52, 2-((4^1S,13aS)-13a-ethyl-2,3,4^1,5,6,13a-hexahydro-1H-indolo[3,2,1-de]pyrido[3,2,1-ij][1,5]naphthyridin-12-yl)-4,5-dimethyloxazole], with at most 1 µM.
